Measured values reported in patent US11643478B2, “Low-molecular-weight holothurian glycosaminoglycan and use thereof” (Suzhou Yi-hua Biomedical Technology co., Ltd, priority 2019, dated 2023).

Columns and labels:
[1] = system: rat's learning and memory abilities of scopolamine model; assay: Platform jumping test, rat dysmnesia model induced by scopolamine; assay type: in vivo, SD rats; settings: intragastric for 2 weeks, LHG 30 mg/Kg, Donepezil 1 mg/Kg, scopolamine 5 mg/Kg i.p.
Experimental: Grouping and dose: blank control group, scopolamine model group (SCOP), positive control group:(Donepezil, 1 mg/Kg), LHG drug group (30 mg/Kg). Administration: intragastric administration. […] Morris training on Day 9 (2 times per day). Morris water maze test and platform jumping test on Day 14. Platform jumping test: Learning and training on the first day, the repeated tests were conducted on the second day. Rats of scopolamine model group, positive control group and LHG drug group were injected with scopolamine hydrobromide through peritoneal cavity (5 mg/Kg) at 20 minutes before the test, while rats of blank control group were injected with equal volume of normal saline through peritoneal cavity. The incubation time of jumping off the platform for the first time (SDL) and the incubation time of avoiding electric shock (EL) were recorded.

[2] = system: rat's learning and memory abilities of scopolamine model; assay: Morris water maze test, rat dysmnesia model induced by scopolamine; assay type: in vivo, SD rats; settings: intragastric for 2 weeks, LHG 30 mg/Kg, Donepezil 1 mg/Kg; scopolamine i.p.
Experimental: Grouping and dose: blank control group, scopolamine model group (SCOP), positive control group:(Donepezil, 1 mg/Kg), LHG drug group (30 mg/Kg). Administration: intragastric administration. […] Morris training on Day 9 (2 times per day). Morris water maze test and platform jumping test on Day 14. Modeling method and test of learning and memory: on the day of the test, rats of scopolamine model group, positive control group and LHG drug group were injected with scopolamine hydrobromide through peritoneal cavity (firstly injection dose is 2 mg/Kg for 2 days, then injection dose is 2 mg/Kg on Day 3) at 30 minutes after intragastric administration, while rats of blank control group were injected with equal volume of normal saline through peritoneal cavity. Morris water maze test was conducted at 20 minutes after injection. The route, time and speed of the rats in the 90s were recorded automatically with computer by the camera tracking on the swimming performance of the rats, then the escaping-incubation time of seeking the platform and swimming distance were calculated.

[3] = system: xylene inducing murine auricle swelling; assay: Xylene inducing murine auricle swelling (anti-inflammation effect); assay type: in vivo; settings: mice, subcutaneous injection 0.01 mL/1 g for 5 days (LHG 100 mg/mL, dexamethasone 50 mg/mL), 1 h after xylene
Experimental: Drug preparation: LHG was added in ionized water to obtain 100 mg/mL LHG solution. Positive contrast: dexamethasone was added in ionized water to obtain 50 mg/mL dexamethasone solution. Blank contrast: ionized water.
Administration: sub cutaneous injection.
Experimental process: healthy mice are randomly divided into three groups (six in each group, half male and half female), name as LHG drug group, positive control group and blank control group. Three groups' mice were injected with 0.01 mL/1 g of LHG, dexamethasone and ionized water respectively. Drug was administered continuously for 5 days. 30 μL of xylenes was evenly smeared on both sides of the right ear of the mice to induce inflammation at 30 min after the last administration. The left ear was used as the reference. At 1 h after inducing inflammation, mice were executed by removing cervical vertebra. The ear pieces of the same part in the left and right ears were obtained with a hole punter, then the auricle swelling rate and inhibition rate of auricle swelling were calculated by weighing with an analytical balance.

Compound | Incubation time of avoiding electric shock ([1]; EL) | Incubation time of jumping off the platform for the first time ([1]; SDL) | Escaping-incubation time [2] | Swimming distance (cm) [2] | Auricle swelling rate [3] | Inhibition rate of auricle swelling [3]
COc1cc2c(cc1OC)C(=O)C(CC1CCN(Cc3ccccc3)CC1)C2 (stereo not drawn) [Donepezil] | 115.28 ± 17.54 s | 48.75 ± 9.84 s | 37.20 ± 12.72 s | 1652.25 ± 295.02 cm | – | –
C[C@@H]1C[C@H]2[C@@H]3CCC4=CC(=O)C=C[C@]4(C)[C@@]3(F)[C@@H](O)C[C@]2(C)[C@@]1(O)C(=O)CO [dexamethasone] | – | – | – | – | 102.9% ± 11.3% | 24.6%
